# Key:
# [1] = target: His6-TEV-PDGFRβ (557-1016) (Homo sapiens (Human), UniProt P09619); assay: PDGFRβ HTRF Assay; assay type: biochemical; settings: read-out: PDGFR HTRF IC50
# Outline: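 Human PDGFRβ (557-1016) pre-incubated with compound for 30 min at RT in pH 7.5 HEPES/MgCl2/EGTA/Brij-35/DTT buffer. Reaction started with ATP and TK-biotin peptide, run 3 h at RT, then quenched with EDTA-containing Eu-cryptate antibody/streptavidin-XL665. HTRF 665/620 nm ratio read after 60 min; percent inhibition relative to DMSO and 10 μM imatinib controls.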
# [2] = target: Tb-labeled inactive PDGFRβ (Homo sapiens (Human), UniProt P09619); assay: PDGFRβ LanthaScreen Assay; assay type: binding; settings: read-out: PDGFR Lantha IC50
# VEGFR2, unphosphorylated = VEGFR2, unphosphorylated (Homo sapiens (Human), UniProt P35968); assay: VEGFR ADP GLO Assay; assay type: biochemical
# Sequence of VEGFR2, unphosphorylated (P35968 20-1356): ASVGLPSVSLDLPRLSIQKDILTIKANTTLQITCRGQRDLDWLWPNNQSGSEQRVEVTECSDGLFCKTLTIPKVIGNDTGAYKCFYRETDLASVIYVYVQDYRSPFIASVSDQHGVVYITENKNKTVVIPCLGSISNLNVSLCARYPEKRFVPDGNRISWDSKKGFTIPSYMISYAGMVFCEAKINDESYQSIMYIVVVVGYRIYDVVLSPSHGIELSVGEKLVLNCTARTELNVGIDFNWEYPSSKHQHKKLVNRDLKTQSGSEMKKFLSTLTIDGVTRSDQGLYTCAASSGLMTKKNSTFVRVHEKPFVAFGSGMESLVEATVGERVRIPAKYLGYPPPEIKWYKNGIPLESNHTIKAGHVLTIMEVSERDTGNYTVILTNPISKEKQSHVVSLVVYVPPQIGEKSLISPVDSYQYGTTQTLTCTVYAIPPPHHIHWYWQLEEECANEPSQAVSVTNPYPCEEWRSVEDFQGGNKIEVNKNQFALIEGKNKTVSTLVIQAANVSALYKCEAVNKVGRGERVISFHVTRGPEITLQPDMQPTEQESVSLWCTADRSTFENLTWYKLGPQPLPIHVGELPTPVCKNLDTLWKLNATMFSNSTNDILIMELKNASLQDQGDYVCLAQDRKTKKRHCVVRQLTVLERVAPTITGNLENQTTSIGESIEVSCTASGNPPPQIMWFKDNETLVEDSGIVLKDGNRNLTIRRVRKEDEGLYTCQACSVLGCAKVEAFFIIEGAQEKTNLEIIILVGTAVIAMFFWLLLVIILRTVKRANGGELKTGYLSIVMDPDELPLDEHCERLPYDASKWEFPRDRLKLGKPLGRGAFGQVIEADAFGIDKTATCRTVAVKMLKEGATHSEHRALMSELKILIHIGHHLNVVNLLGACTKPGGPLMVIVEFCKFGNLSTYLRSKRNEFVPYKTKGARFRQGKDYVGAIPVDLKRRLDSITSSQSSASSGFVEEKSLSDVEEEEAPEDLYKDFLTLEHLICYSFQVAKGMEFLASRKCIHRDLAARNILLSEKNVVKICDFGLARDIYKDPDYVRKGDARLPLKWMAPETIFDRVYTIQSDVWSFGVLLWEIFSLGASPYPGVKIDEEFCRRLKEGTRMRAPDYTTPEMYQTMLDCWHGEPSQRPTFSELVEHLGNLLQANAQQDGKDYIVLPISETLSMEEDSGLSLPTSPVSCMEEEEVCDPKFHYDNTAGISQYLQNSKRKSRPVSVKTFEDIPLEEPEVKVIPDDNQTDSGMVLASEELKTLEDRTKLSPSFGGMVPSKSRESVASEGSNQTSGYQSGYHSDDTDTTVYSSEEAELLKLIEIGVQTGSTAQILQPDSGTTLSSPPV
# Sequence of His6-TEV-PDGFRβ (557-1016) (P09619 557-1016): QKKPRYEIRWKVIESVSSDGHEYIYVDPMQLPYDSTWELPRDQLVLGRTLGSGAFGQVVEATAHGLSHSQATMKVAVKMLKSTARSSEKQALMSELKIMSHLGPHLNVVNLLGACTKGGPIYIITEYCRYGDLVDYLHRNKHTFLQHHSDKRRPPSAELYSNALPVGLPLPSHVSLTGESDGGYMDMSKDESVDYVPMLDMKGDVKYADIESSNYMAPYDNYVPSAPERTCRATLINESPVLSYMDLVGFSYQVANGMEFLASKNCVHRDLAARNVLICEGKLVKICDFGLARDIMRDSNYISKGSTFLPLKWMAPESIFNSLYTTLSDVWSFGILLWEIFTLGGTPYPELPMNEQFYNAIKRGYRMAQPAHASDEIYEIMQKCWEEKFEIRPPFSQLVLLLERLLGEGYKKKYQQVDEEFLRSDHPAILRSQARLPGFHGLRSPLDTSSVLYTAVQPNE
# Sequence of Tb-labeled inactive PDGFRβ (P09619 33-1106): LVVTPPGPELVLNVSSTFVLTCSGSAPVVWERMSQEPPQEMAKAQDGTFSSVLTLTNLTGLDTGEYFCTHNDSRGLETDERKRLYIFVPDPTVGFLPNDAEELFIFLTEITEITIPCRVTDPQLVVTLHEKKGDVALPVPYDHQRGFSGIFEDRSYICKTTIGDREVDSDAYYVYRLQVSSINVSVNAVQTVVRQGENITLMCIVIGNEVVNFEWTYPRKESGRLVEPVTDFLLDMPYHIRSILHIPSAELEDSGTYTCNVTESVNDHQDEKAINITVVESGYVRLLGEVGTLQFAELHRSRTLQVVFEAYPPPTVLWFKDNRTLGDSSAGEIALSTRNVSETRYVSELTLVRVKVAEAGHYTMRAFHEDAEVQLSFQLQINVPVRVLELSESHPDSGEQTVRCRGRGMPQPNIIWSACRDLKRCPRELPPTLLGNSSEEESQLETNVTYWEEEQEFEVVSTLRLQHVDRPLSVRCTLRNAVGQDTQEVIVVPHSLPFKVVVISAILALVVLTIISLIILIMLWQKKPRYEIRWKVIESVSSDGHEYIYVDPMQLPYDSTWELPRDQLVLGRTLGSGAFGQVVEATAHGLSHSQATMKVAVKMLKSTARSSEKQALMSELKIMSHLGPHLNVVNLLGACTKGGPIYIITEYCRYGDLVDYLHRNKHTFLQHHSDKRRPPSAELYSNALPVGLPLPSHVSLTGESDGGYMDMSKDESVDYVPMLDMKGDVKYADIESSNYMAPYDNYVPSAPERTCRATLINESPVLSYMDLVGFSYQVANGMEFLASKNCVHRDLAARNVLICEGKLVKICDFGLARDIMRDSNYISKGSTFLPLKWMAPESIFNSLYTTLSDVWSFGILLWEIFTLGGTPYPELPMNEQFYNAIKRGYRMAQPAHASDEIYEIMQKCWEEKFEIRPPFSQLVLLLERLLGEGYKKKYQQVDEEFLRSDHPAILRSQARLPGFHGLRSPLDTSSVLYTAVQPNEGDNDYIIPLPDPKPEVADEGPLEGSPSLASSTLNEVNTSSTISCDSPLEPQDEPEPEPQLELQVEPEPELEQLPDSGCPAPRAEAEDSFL
Structure (SMILES),IC50 [1] [nM],IC50 [2] [nM],"IC50 (VEGFR2, unphosphorylated) [nM]"
"Cc1ncc(C(=O)NCCN2C[C@H]3CC[C@@H]2C3)cc1NC(=O)c1cnn2cc(-c3cn(C)nc3C)sc12 [Example 211, N-(5-((2-((1R,4S)-2-azabicyclo[2.2.1]heptan-2-yl)ethyl)carbamoyl)-2-methylpyridin-3-yl)-2-(1,3-dimethyl-1H-pyrazol-4-yl)pyrazolo[5,1-b]thiazole-7-carboxamide]",0.3,2.4,> 7500
"COc1ncccc1-c1cn2ncc(C(=O)Nc3cc(C(=O)NCCN4CCC[C@H]4C)cnc3C)c2s1 [Example 242, (R)-2-(2-methoxypyridin-3-yl)-N-(2-methyl-5-((2-(2-methylpyrrolidin-1-yl)ethyl)carbamoyl)pyridin-3-yl)pyrazolo[5,1-b]thiazole-7-carboxamide]",0.2,1.7,> 7500
"Cc1ncc(NC(=O)CN2CCCC2(C)C)cc1NC(=O)c1cnn2cc(-c3cnn(C)c3)sc12 [Example 13, N-(5-(2-(2,2-dimethylpyrrolidin-1-yl)acetamido)-2-methylpyridin-3-yl)-2-(1-methyl-1H-pyrazol-4-yl)pyrazolo[5,1-b]thiazole-7-carboxamide]",0.5,5,> 7500
"Cc1cc(C(=O)NCCN2CC[C@@H](O)C2)sc1NC(=O)c1cnn2cc(-c3cnn(C)c3)sc12 [Example 194, (R)—N-(5-((2-(3-hydroxypyrrolidin-1-yl)ethyl)carbamoyl)-3-methylthiophen-2-yl)-2-(1-methyl-1H-pyrazol-4-yl)pyrazolo[5,1-b]thiazole-7-carboxamide]",147,> 3000,2040
"Cc1ncc(C(=O)NCCN2CCCC2)cc1NC(=O)c1cnn2cc(-c3cnn(CC(O)CO)c3)sc12 (stereo not drawn) [Example 225, 2-(1-(2,3-Dihydroxypropyl)-1H-pyrazol-4-yl)-N-(2-methyl-5-((2-(pyrrolidin-1-yl)ethyl)carbamoyl)pyridin-3-yl)pyrazolo[5,1-b]thiazole-7-carboxamide]",0.6,12.2,> 7500
"Cc1ncc(C(=O)NCCN2CCCC2)cc1NC(=O)c1cnn2cc(-c3cnn(CCC(O)CO)c3)sc12 (stereo not drawn) [Example 222, 2-(1-(3,4-Dihydroxybutyl)-1H-pyrazol-4-yl)-N-(2-methyl-5-((2-(pyrrolidin-1-yl)ethyl)carbamoyl)pyridin-3-yl)pyrazolo[5,1-b]thiazole-7-carboxamide]",0.7,16.5,> 7500
"Cc1cc(C(=O)NCCN2CCCC(O)C2)sc1NC(=O)c1cnn2cc(-c3cnn(C)c3)sc12 (stereo not drawn) [Example 200, N-(5-((2-(3-hydroxypiperidin-1-yl)ethyl)carbamoyl)-3-methylthiophen-2-yl)-2-(1-methyl-1H-pyrazol-4-yl)pyrazolo[5,1-b]thiazole-7-carboxamide]",49,2210,> 7500
"Cc1ncc(NC(=O)OCC(C)N2CCCC2)cc1NC(=O)c1cnn2cc(-c3cnn(C)c3)sc12 (stereo not drawn) [Example 248, 2-(pyrrolidin-1-yl)propyl (6-methyl-5-(2-(1-methyl-1H-pyrazol-4-yl)pyrazolo[5,1-b]thiazole-7-carboxamido)pyridin-3-yl)carbamate]",0.4,10.2,> 7500
"COc1ncccc1-c1cn2ncc(C(=O)Nc3cc(NC(=O)OC[C@@H]4CCCN4C)cnc3C)c2s1 [Example 253, (S)-(1-methylpyrrolidin-2-yl)methyl (5-(2-(2-methoxypyridin-3-yl)pyrazolo[5,1-b]thiazole-7-carboxamido)-6-methylpyridin-3-yl)carbamate]",0.2,1.8,> 7500
"Cc1ncc(NC(=O)OCCN2CCCC2)cc1NC(=O)c1cnn2cc(-c3cnn(C)c3)sc12 [Example 246, 2-(pyrrolidin-1-yl)ethyl (6-methyl-5-(2-(1-methyl-1H-pyrazol-4-yl)pyrazolo[5,1-b]thiazole-7-carboxamido)pyridin-3-yl)carbamate]",1.4,64.7,> 7500
"Cn1cc(-c2cn3ncc(C(=O)Nc4cc(C(=O)NCCN5CCCC5(C)C)ccc4F)c3s2)cn1 [Example 207, N-(5-((2-(2,2-dimethylpyrrolidin-1-yl)ethyl)carbamoyl)-2-fluorophenyl)-2-(1-methyl-1H-pyrazol-4-yl)pyrazolo[5,1-b]thiazole-7-carboxamide]",0.3,4.4,> 7500
"Cc1cc(C(=O)NCCN(C)C2CCOCC2)sc1NC(=O)c1cnn2cc(-c3cnn(C)c3)sc12 [Example 192, 2-(1-methyl-1H-pyrazol-4-yl)-N-(3-methyl-5-((2-(methyl(tetrahydro-2H-pyran-4-yl)amino)ethyl)carbamoyl)thiophen-2-yl)pyrazolo[5,1-b]thiazole-7-carboxamide]",34.6,1380,> 7500
"Cc1ncc(C(=O)NCCN(CCO)CC2CCCCC2)cc1NC(=O)c1cnn2cc(-c3cnn(C)c3)sc12 [Example 235, N-(5-((2-((cyclohexylmethyl)(2-hydroxyethyl)amino)ethyl)carbamoyl)-2-methylpyridin-3-yl)-2-(1-methyl-1H-pyrazol-4-yl)pyrazolo[5,1-b]thiazole-7-carboxamide]",0.5,5.2,> 7500
"Cc1ncc(NC(=O)CN2CCC(F)(F)CC2)cc1NC(=O)c1cnn2cc(-c3cnn(C)c3)sc12 [Example 14, N-(5-(2-(4,4-difluoropiperidin-1-yl)acetamido)-2-methylpyridin-3-yl)-2-(1-methyl-1H-pyrazol-4-yl)pyrazolo[5,1-b]thiazole-7-carboxamide]",0.4,2.7,> 7500
"Cc1cc(C(=O)NCCN2CCOCC23CC3)sc1NC(=O)c1cnn2cc(-c3cnn(C)c3)sc12 [Example 197, N-(5-((2-(7-oxa-4-azaspiro[2.5]octan-4-yl)ethyl)carbamoyl)-3-methylthiophen-2-yl)-2-(1-methyl-1H-pyrazol-4-yl)pyrazolo[5,1-b]thiazole-7-carboxamide]",11.5,51,> 7500
"CCc1cc(C(=O)NCCN2CCCC23CCC3)sc1NC(=O)c1cnn2cc(-c3cnn(C)c3)sc12 [Example 205, N-(5-((2-(5-azaspiro[3.4]octan-5-yl)ethyl)carbamoyl)-3-ethylthiophen-2-yl)-2-(1-methyl-1H-pyrazol-4-yl)pyrazolo[5,1-b]thiazole-7-carboxamide]",39.4,107,> 7500
"Cc1cc(C(=O)NCCN2CCC3(CCC3)CC2)sc1NC(=O)c1cnn2cc(-c3cnn(C)c3)sc12 [Example 203, N-(5-((2-(7-azaspiro[3.5]nonan-7-yl)ethyl)carbamoyl)-3-methylthiophen-2-yl)-2-(1-methyl-1H-pyrazol-4-yl)pyrazolo[5,1-b]thiazole-7-carboxamide]",25,1060,> 7500
"COc1ncccc1-c1cn2ncc(C(=O)Nc3cc(C(=O)NCCN4CCCC4C)cnc3C)c2s1 (stereo not drawn) [Example 228, 2-(2-Methoxypyridin-3-yl)-N-(2-methyl-5-((2-(2-methylpyrrolidin-1-yl)ethyl)carbamoyl)pyridin-3-yl)pyrazolo[5,1-b]thiazole-7-carboxamide]",0.2,1.5,> 833
"Cc1cc(C(=O)NCCN(C)C2CCCC2)sc1NC(=O)c1cnn2cc(-c3cnn(C)c3)sc12 [Example 190, N-(5-((2-(cyclopentyl(methyl)amino)ethyl)carbamoyl)-3-methylthiophen-2-yl)-2-(1-methyl-1H-pyrazol-4-yl)pyrazolo[5,1-b]thiazole-7-carboxamide]",6,398,> 7500
"Cc1ncc(C(=O)NCCN2CCCC2)cc1NC(=O)c1cnn2cc(-c3cnn(C)c3)sc12 [Example 219, 2-(1-Methyl-1H-pyrazol-4-yl)-N-(2-methyl-5-((2-(pyrrolidin-1-yl)ethyl)carbamoyl)pyridin-3-yl)pyrazolo[5,1-b]thiazole-7-carboxamide]",0.4,14,> 7500
"Cc1ncc(C(=O)NCCN2CCCC2(C)C)cc1NC(=O)c1cnn2cc(-n3ncc4cccnc43)sc12 [Example 217, N-(5-((2-(2,2-dimethylpyrrolidin-1-yl)ethyl)carbamoyl)-2-methylpyridin-3-yl)-2-(1H-pyrazolo[3,4-b]pyridin-1-yl)pyrazolo[5,1-b]thiazole-7-carboxamide]",0.4,2.5,> 7500
"Cc1cc(C(=O)NCCN2CCC(C)(C)CC2)sc1NC(=O)c1cnn2cc(-c3cnn(C)c3)sc12 [Example 183, N-(5-((2-(4,4-dimethylpiperidin-1-yl)ethyl)carbamoyl)-3-methylthiophen-2-yl)-2-(1-methyl-1H-pyrazol-4-yl)pyrazolo[5,1-b]thiazole-7-carboxamide]",11.1,652,> 7500
"Cc1ncc(C(=O)NCCN2CCCC23CCC3)cc1NC(=O)c1cnn2cc(-c3cn(C)nc3C)sc12 [Example 213, N-(5-((2-(5-azaspiro[3.4]octan-5-yl)ethyl)carbamoyl)-2-methylpyridin-3-yl)-2-(1,3-dimethyl-1H-pyrazol-4-yl)pyrazolo[5,1-b]thiazole-7-carboxamide]",0.3,1.9,> 7500
"Cc1cc(C(=O)NCCCN2CCCC2(C)C)sc1NC(=O)c1cnn2cc(-c3cnn(C)c3)sc12 [Example 201, N-(5-((3-(2,2-dimethylpyrrolidin-1-yl)propyl)carbamoyl)-3-methylthiophen-2-yl)-2-(1-methyl-1H-pyrazol-4-yl)pyrazolo[5,1-b]thiazole-7-carboxamide]",58.5,2450,> 7500
